Assay [1] is described as follows: DPPH free radical scavenging assay. Particulars: 30 min, room temperature, dark, 517 nm; mean ± SD, n = 3; read-out: DPPH^• Scavenge IC50. From the text:
The 2,2-diphenyl-1-pycrylhydrazyl free radical (DPPH^•) scavenging method is widely used to evaluate the free radical scavenging ability of natural antioxidants. 2,2-Diphenyl-1-pycrylhydrazyl is a stable nitrogen centered free radical, which has a violet color that changes to yellow after reduction by the process of either hydrogen atom or single electron transfer mechanism. Compounds that are able to execute this reaction can be considered antioxidants and therefore radical scavengers. In the radical form, the DPPH molecule has an absorbance of 517 nm, which disappears after the acceptance of an electron or hydrogen radical from an antioxidant compound, to become a stable diamagnetic molecule. The DPPH^• scavenging activities of the tested compounds were estimated using the method of [35] with slight modification. To 1 mL methanolic solution of DPPH^• (0.08 mM), 0.1 mL of the tested compounds were added. The resulting mixture was shaken thoroughly and allowed to stand at room temperature in the dark for 30 min, after which the absorbance of the solution was measured at 517 nm. L(+)-Ascorbic acid was used as the positive control. The negative control contained DPPH^• and methanol. The ability to scavenge DPPH radical was calculated using the equation:(2) % DPPH radical scavenge = (1 − At/A0) × 100 where A0 is the absorbance of the control and At is the absorbance of the tested compound. The DPPH^• absorbance decreases with an increase in the DPPH radical scavenging activity.
(§1) All data on AChE inhibition/antioxidant activity are the average of triplicate analyses (n = 3) and the data were recorded as mean ± standard deviation. Regression analysis was performed to calculate the dose-response relation and IC50 values were obtained from the equations y = a ± bx.

Assay [2] can be described thus: ABTS radical cation scavenging assay. Particulars: 7 min, room temperature, 734 nm; mean ± SD, n = 3; read-out: ABTS^•+ Scavenge IC50. The protocol: The 2,2′-azinobis(3-ethylbenzothiazoline-6-sulphonic acid) radical cation (ABTS^•+), which absorbs at 734 nm, is formed by oxidation of the commercially available neutral species. This oxidation can be done by potassium persulphate, manganese (IV) oxide, or electrochemical methods. In the presence of a hydrogen-donating antioxidant, the […] quenches the hydrogen atom, which is followed by decolorization. In this study, the ABTS^•+ was produced by mixing 7 mM ABTS stock solution with 2.45 mM potassium persulfate and allowing the mixture to stand in a dark at room temperature for 16 h before use. Different concentrations of the tested compounds (0.1 mL) were added to 1 mL ABTS^•+ solution. The reaction mixtures were mixed thoroughly, incubated at room temperature for 7 min, and the absorbance was recorded at 734 nm. The ability to scavenge the ABTS radical cation was calculated using the following equation:(3) % ABTS radical cation scavenge = (1 − At/A0) × 100 where A0 is the absorbance of the control and At is the absorbance of the tested compound. The ABTS^•+ solution without any sample was used as a control, prepared by using the same procedure. From the percentage of the scavenging activity at different tested compounds concentrations, IC50 values were calculated and compared with those of standard L(+)-ascorbic acid solution.
as §1

Assay [3] in a line: Ferric-reducing antioxidant power (FRAP) assay. The following applies: pH 3.6, 6 min, 593 nm; mean ± SD, n = 3. The protocol:
The FRAP assay is a typical electron transfer-based method that measures the reduction of (Fe^3+)-ligand complex to the intensely blue-colored ferrous (Fe^2+)-ligand complex by antioxidants. The FRAP assay is carried out under acidic pH conditions in order to maintain iron solubility and more importantly, drive electron transfer. This will increase the redox potential, causing a shift in the dominant reaction mechanism. The FRAP assay was done according to the method described by Benzie and Strain [40] with slightly modifications. The stock solutions included 300 mM acetate buffer (pH 3.6), 10 mM 2,4,6-tris(2-pyridyl)-s-triazine (TPTZ) solution in ethanol, and 20 mM FeCl3 solution in 20 mM HCl. […] An aliquot of 0.1 mL of the tested compound was allowed to react with 3.0 mL of the FRAP working solution and 0.3 mL of water. […] The results are expressed as L(+)-ascorbic acid equivalent (AAE).
(§2) Regression analysis was performed to calculate the dose-response relation and IC50 values were obtained from the equations y = a ± bx.

Assay [4] is described as follows: Fe(II)-chelating assay (inhibition of Fe^2+–ferrozine complex formation). Particulars: 10 min, room temperature, 562 nm.
Text: Among the transition metals, Fe^2+ ions are well-known for their significant role as a prooxidants in the lipid oxidation process and the formation of hydroxyl radicals in Fenton-type reactions. However, effective chelating agents can reduce the damage resulting from these reactions. The most important spectrophotometric method for studying chelation activity is the inhibition of the Fe^2+–ferrozine complex formation, during which ferrozine reacts quantitatively with Fe^2+ ions in the […] of a chelating agent and complex formation is disrupted. Measurement of color reduction therefore allows estimation of the metal chelating activity of the coexisting chelator. The chelating abilities on Fe^2+ by the tested compounds were estimated by the method as described by Dinis. Briefly, 0.4 mL of the tested compound was added to 0.05 mL of FeCl2 (2 mM) solution. The reaction was initiated by the addition of ferrozine (0.2 mL, 5 mM). The total volume of the systems was adjusted to 4 mL with ethanol. Then, the mixture was shaken vigorously and left at room temperature for 10 min. […] The percentage of chelating effect was calculated by using the equation below:(4) % Chelating effect = (1 − At/A0) × 100 where A0 is the absorbance of the control and At is the absorbance of the tested compound.
as §2

Assay [5] addresses acetylcholinesterase (AChE) from Electrophorus electricus (Electrophorus electricus, UniProt O42275). Briefly: biochemical. The following applies: AChE from E. electricus; 15 min incubation at 37 °C, pH 8; mean ± SD, n = 3; read-out: AChE Inhibition IC50.
Where [6] appears, read: read-out: Chelation ability IC50 (Fe^2+ ions).

Each structure is given as a SMILES string. “And” between values parts separate entries of the source, which are not always exact repeats. Identical values can stand only once.

Chain of acetylcholinesterase (AChE) from Electrophorus electricus (O42275 24-633): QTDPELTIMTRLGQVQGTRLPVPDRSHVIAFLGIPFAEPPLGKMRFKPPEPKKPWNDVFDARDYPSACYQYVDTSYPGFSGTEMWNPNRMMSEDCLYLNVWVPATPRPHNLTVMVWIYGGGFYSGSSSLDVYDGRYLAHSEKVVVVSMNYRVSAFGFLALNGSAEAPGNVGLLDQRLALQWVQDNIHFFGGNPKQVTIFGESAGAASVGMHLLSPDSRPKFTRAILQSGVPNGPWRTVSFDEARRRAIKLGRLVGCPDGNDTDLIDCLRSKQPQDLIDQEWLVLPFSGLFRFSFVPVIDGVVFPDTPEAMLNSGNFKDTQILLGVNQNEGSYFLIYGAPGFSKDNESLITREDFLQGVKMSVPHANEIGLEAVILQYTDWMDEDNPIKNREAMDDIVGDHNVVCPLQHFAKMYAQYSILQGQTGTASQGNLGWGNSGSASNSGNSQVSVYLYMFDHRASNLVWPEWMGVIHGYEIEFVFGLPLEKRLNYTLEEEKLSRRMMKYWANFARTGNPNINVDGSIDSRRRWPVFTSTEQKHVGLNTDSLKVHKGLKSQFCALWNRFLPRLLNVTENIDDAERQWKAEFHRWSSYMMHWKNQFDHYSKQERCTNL

As for `O=C(O)/C=C/c1ccc(O)c(O)c1` [trans-Caffeic acid], the IC50 came to 18.9 ± 0.22 µM in assay [1], 1.19 ± 0.02 µM in assay [2] and 12900 µM in assay [4] (setting [6]). In assay [3], the “FRAP AAE (L(+)-ascorbic acid equivalent)” value is 526.05 ± 12.87 μmol/mmol.
Regarding `COc1cc(/C=C/C(=O)NCCc2ccc(O)c(O)c2)ccc1O` [N-trans-Feruloyldopamine], the half-inhibitory concentration (IC50) was found to be 8.52 ± 0.27 µM in assay [5], 12.29 ± 0.04 µM in assay [1], 0.74 µM in assay [2] and 3170 µM in assay [4] (setting [6]). The “FRAP AAE (L(+)-ascorbic acid equivalent)” value in assay [3] stood at 661.53 ± 13.51 μmol/mmol.
With `O=C(/C=C/c1ccc(O)c(O)c1)NCCc1ccc(O)c(O)c1` [N-trans-Caffeoyldopamine], the IC50 in assay [5] came out at 19.1 ± 0.83 µM; in assay [1] it was 5.95 ± 0.12 µM; in assay [2] it was 0.24 µM; in assay [4] (read-out: Chelation of ferrous ions IC50) it was 3480 µM. In addition, the “FRAP AAE (L(+)-ascorbic acid equivalent)” value in assay [3] was 822.45 μmol/mmol and 822.45 ± 13.53 μmol/mmol.
Turning to `COc1cc(/C=C/C(=O)O)ccc1O` [trans-Ferulic acid], the IC50 in assay [5] was 20.6 ± 0.65 µM; in assay [1], 19.93 ± 0.18 µM; in assay [2] it was 1.62 ± 0.01 µM; in assay [4] (setting [6]), 5060 µM.
Regarding `O=C([O-])CN(CCN(CC(=O)[O-])CC(=O)O)CC(=O)O.[Na+].[Na+]` [Na2EDTA, disodium ethylenediaminetetraacetate], the IC50 in assay [4] (setting [6]) was determined as 10 µM.
For the molecule `O=C1O[C@H]([C@@H](O)CO)C(O)=C1O` [L(+)-Ascorbic acid], the figures for the IC50 in assay [1] and in assay [2] were 1.14 ± 0.03 µM and 0.11 µM, respectively.
